For the assay, the target named is T1, Integrin alpha-4 (Homo sapiens, UniProt P13612).
T1 sequence (P13612 whole entry): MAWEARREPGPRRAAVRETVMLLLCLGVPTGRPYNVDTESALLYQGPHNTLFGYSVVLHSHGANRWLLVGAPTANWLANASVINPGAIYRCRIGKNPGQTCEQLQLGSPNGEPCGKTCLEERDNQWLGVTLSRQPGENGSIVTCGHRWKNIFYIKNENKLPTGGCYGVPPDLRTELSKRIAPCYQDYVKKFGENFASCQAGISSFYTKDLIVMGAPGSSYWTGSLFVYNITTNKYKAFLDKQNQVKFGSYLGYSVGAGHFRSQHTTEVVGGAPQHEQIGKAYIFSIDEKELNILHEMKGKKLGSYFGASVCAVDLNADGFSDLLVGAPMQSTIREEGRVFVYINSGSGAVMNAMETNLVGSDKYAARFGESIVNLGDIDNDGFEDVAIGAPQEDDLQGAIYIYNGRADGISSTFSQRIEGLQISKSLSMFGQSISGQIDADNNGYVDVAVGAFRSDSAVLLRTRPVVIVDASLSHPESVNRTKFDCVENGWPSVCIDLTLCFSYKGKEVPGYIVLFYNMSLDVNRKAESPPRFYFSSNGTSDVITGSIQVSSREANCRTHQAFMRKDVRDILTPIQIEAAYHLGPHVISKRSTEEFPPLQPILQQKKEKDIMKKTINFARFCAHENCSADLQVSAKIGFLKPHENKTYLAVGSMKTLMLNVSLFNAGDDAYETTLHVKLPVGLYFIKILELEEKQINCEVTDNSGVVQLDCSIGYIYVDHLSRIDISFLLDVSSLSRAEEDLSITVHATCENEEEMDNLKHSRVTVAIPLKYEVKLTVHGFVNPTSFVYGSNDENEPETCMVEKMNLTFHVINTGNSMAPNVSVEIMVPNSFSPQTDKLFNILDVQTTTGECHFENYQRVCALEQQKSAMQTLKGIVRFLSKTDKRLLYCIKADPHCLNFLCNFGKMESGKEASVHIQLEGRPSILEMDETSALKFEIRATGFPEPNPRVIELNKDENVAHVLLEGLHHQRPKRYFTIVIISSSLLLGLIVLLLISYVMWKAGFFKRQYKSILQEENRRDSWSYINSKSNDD
Description: allosteric modulators of alpha4 integrin VLA-4 – cell-based, LIBS antibody binding, flow cytometry, SAR follow-up (AID 488791). A general note: Flow cytometry measures light scatter and fluorescence of single cells or particles in a stream.

Each structure is given as a SMILES string.

Consider `Cc1ccc(NC(=O)c2cc(-n3c(O)ccc3O)ccc2N2CCOCC2)cc1`, for which the EC50 (commonly the concentration needed to bring the measured effect to its halfway point) is 16.4 µM. The same measure for `Cc1ccc(NC(=O)c2cc(-n3c(O)ccc3O)ccc2N2CCOCC2)cc1Cl` [VU0419498-1]: 23.3 µM.

(Values after BindingDB's records for doi:10.7270/Q24X5684 (Nmmlsc, 2010).)
